Results as given in publication PMC5653977 (EMBO Molecular Medicine, 2017).
Where a name gives a salt, the structure may show the parent alone.

The molecules below were run on NRG1-ERBB4 signaling (assay: Nrg1-ERBB4-PIK3R1 split TEV co-culture compound screen of the NIH Clinical Collection). Conditions: NIH Clinical Collection NCC-003 raw data; compounds ranked by Z-score; 'flagged' given instead of a Z-score.
Type: cell-based, human

Compared with `CC1=C(C(=O)O)N2C(=O)[C@@H](NC(=O)[C@H](N)c3ccccc3)[C@H]2SC1` [Cephalexin monohydrate], `CCC(C)n1ncn(-c2ccc(N3CCN(c4ccc(OCC5COC(Cn6cncn6)(c6ccc(Cl)cc6Cl)O5)cc4)CC3)cc2)c1=O` (centres unmarked) [Itraconazole, reference compound] is lower in Z-SCORE: -1.51 for the first, -3.6 for the second.

`NC(N)=Nc1nc(CSCCC(N)=NS(N)(=O)=O)cs1` [FAMOTIDINE] gave a Z-SCORE of -1.65.

`CC[C@]1(O)C[C@@H]2CN(CCc3c([nH]c4ccccc34)[C@@](C(=O)OC)(c3cc4c(cc3OC)N(C)[C@H]3[C@@](O)(C(N)=O)[C@H](O)[C@]5(CC)C=CCN6CC[C@]43[C@@H]65)C2)C1` [VINDESINE SULFATE] was tested, and the Z-SCORE was “flagged”.

Same assay, conditions: compound screen of the NIH Clinical Collection, sheet raw data NCC-003; compounds ranked by Z-score

Going from `NC[C@H]1CC[C@H](C(=O)Oc2ccc(CCC(=O)O)cc2)CC1` [CETRAXATE HCl] to `CC(C)[C@H]1CC[C@H](C(=O)N[C@H](Cc2ccccc2)C(=O)O)CC1` [NATEGLINIDE], the Z-SCORE falls from 0.04 to -0.03.

First: C[C@H]1COc2c(N3CCN(C)CC3)c(F)cc3c(=O)c(C(=O)O)cn1c23 [LEVOFLOXACIN]
Second: CN1C(=O)COc2c(C(=O)NC3CN4CCC3CC4)cc(Cl)cc21 (centres unmarked) [Azasetron]
The Z-SCORE of the first is lower: -0.28 for the first, 0.46 for the second.

Going from `CCOC(=O)OC(C)OC1=C(C(=O)Nc2ccccn2)N(C)S(=O)(=O)c2ccccc21` (centres unmarked) [AMPIROXICAM] to `CC(=O)SCC(Cc1ccccc1)C(=O)NCC(=O)OCc1ccccc1` (centres unmarked), the Z-SCORE falls from 0.43 to 0.

First: CN(Cc1cnc2nc(N)nc(N)c2n1)c1ccc(C(=O)N[C@@H](CCC(=O)O)C(=O)O)cc1
Second: CC(C)c1ccc2oc3nc(N)c(C(=O)O)cc3c(=O)c2c1 [Amlexanox, reference compound]
The Z-SCORE of the first is lower: 0.85 for the first, 4.7 for the second.

Compared with `Cl.O=C(O)/C=C/c1ccc(Cn2ccnc2)cc1` [Ozagrel hydrochloride], `COc1cc(/C=C/c2ccc(O)cc2)cc(OC)c1` [PTEROSTILBENE] is lower in Z-SCORE: 0.36 for the first, -0.71 for the second.

First: CC1=NS(=O)(=O)c2cc(Cl)ccc2N1 [DIAZOXIDE]
Second: CC(NC(C)(C)C)C(=O)c1cccc(Cl)c1.Cl (centres unmarked) [AMFEBUTAMONE HCl]
The Z-SCORE of the first is higher: 2.34 for the first, 0 for the second.

Going from `CCCCN1CCCC1CNC(=O)c1cc(C#N)c2ccccc2c1OC` (centres unmarked) [Nafadotride] to `CCN1CCC[C@H]1CNC(=O)c1cc(S(N)(=O)=O)ccc1OC` [LEVOSULPIRIDE], the Z-SCORE falls from -0.24 to -0.53.

First: CNCC[C@@H](Oc1ccccc1C)c1ccccc1 [ATOMOXETINE HCl]
Second: CN(C)CCOC(c1ccccc1)c1ccccc1 [DIPHENHYDRAMINE HYDROCHLORIDE]
The Z-SCORE of the first is lower: 0.83 for the first, 1.01 for the second.

Compared with `Nc1ncnc2c1ncn2[C@@H]1O[C@H](CO)C[C@H]1O` [3'-Deoxydenosine, reference compound], `CC1CNc2c(cccc2S(=O)(=O)N[C@@H](CCCNC(=N)N)C(=O)N2CC[C@@H](C)C[C@@H]2C(=O)O)C1` (some centres unmarked) [ARGATROBAN] is lower in Z-SCORE: 5.88 for the first, -0.29 for the second.

First: C[C@H]1O[C@H](O[C@H]2[C@H](O)[C@@H](O)[C@@H](O[C@H]3[C@H](O)[C@@H](O)C(O)O[C@@H]3CO)O[C@@H]2CO)[C@H](O)[C@@H](O)[C@@H]1N[C@H]1C=C(CO)[C@@H](O)[C@H](O)[C@H]1O (some centres unmarked) [ACARBOSE]
Second: COc1cc(N)c(Cl)cc1C(=O)NC1CCN(CCCOc2ccc(F)cc2)CC1OC (centres unmarked) [Cisapride]
The Z-SCORE of the first is lower: -0.8 for the first, -0.15 for the second.

First: CCOC(=O)C1=C(C)NC(C)=C(C(=O)OCC)C1c1ccccc1/C=C/C(=O)OC(C)(C)C [LACIDIPINE]
Second: CC(C)c1ccc2c(c1)c(SC(C)(C)C)c(CC(C)(C)C(=O)O)n2Cc1ccc(Cl)cc1
The Z-SCORE of the first is lower: -0.35 for the first, 0.23 for the second.

First: NC(=O)C[S+]([O-])C(c1ccccc1)c1ccccc1 (centres unmarked) [Modafinil]
Second: CCN1CC(CCN2CCOCC2)C(c2ccccc2)(c2ccccc2)C1=O.Cl (centres unmarked) [DOXAPRAM HYDROCHLORIDE]
The Z-SCORE of the first is higher: 0.43 for the first, -0.46 for the second.

First: O=C(CCCN1CC=C(n2c(=O)[nH]c3ccccc32)CC1)c1ccc(F)cc1 [DROPERIDOL]
Second: COc1cc(C(=O)NS(=O)(=O)c2ccccc2C)ccc1Cc1cn(C)c2ccc(NC(=O)OC3CCCC3)cc12 [ZAFIRLUKAST]
The Z-SCORE of the first is lower: -0.96 for the first, -0.67 for the second.

First: CC[C@@H](C(N)=O)N1CCCC1=O
Second: CC(C(=O)O)c1ccc(CC2CCCC2=O)cc1 (centres unmarked) [LOXOPROFEN SODIUM]
The Z-SCORE of the first is lower: -0.28 for the first, 0.32 for the second.

Compared with `CN1CCN(CCCN2c3ccccc3Sc3ccc(Cl)cc32)CC1`, `CN1CCC(=C2c3ccccc3CC(=O)c3sccc32)CC1` [KETOTIFEN FUMARATE] is higher in Z-SCORE: -0.47 for the first, -0.37 for the second.

Going from `O=C(O)C(Cl)Cl` [DICHLOROACETIC ACID] to `CC1(C)S[C@@H]2[C@H](/N=C/N3CCCCCC3)C(=O)N2[C@H]1C(=O)O`, the Z-SCORE falls from 1.9 to 1.1.

First: C=C(C)CN1CC[C@]23c4c5ccc(O)c4O[C@H]2c2[nH]c4ccccc4c2C[C@@]3(O)C1C5.Cl.O [SDM25N]
Second: OCc1cc(C(O)CNCCCCCCOCCCCc2ccccc2)ccc1O (centres unmarked) [Salmeterol]
The Z-SCORE of the first is lower: -0.11 for the first, 0.6 for the second.

First: O=C1Nc2ccccc2/C1=C1/Nc2ccccc2C1=O [Indirubin]
Second: Cc1nc2n(c(=O)c1CCN1CCC(c3noc4cc(F)ccc34)CC1)CCCC2 [RISPERIDONE]
The Z-SCORE of the first is higher: 0.67 for the first, 0 for the second.

`COc1ccc2[n-]c([S+]([O-])Cc3ncc(C)c(OC)c3C)nc2c1.COc1ccc2[n-]c([S+]([O-])Cc3ncc(C)c(OC)c3C)nc2c1.[Mg+2]` (centres unmarked) [ESOMEPRAZOLE Mg] showed a Z-SCORE of 0.45.

Same assay, conditions: compounds at 10 μM, 24 h; PC12 split TEV assay cells co-cultured with Nrg1-expressing PC12 cells; analysed with cellHTS2

Compared with `NS(=O)(=O)c1cc2c(cc1C(F)(F)F)NCNS2(=O)=O` [HYDROFLUMETHIAZIDE, reference compound], `CC1Cc2ccccc2N1NC(=O)c1ccc(Cl)c(S(N)(=O)=O)c1` (centres unmarked) [INDAPAMIDE, reference compound] is higher in Z-SCORE: -0.47 for the first, 0.07 for the second.

Going from `CCCCNC(=O)NS(=O)(=O)c1ccc(C)cc1` [Tolbutamide, reference compound] to `Cc1ccc(S(=O)(=O)NC(=O)NN2CCCCCC2)cc1` [TOLAZAMIDE, reference compound], the Z-SCORE falls from 0.32 to 0.3.

Compared with `CC1COc2c(N3CCN(C)CC3)c(F)cc3c(=O)c(C(=O)O)cn1c23` (centres unmarked) [OFLOXACIN, reference compound], `CC(C)c1ccc2oc3nc(N)c(C(=O)O)cc3c(=O)c2c1` [Amlexanox, reference compound] is higher in Z-SCORE: 0.8 for the first, 4.7 for the second.

Going from `CC(COc1ccccc1)NC(C)C(O)c1ccc(O)cc1` (centres unmarked) [Duvadilan, reference compound] to `CC(C)NCC(O)COc1cccc2ccccc12` (centres unmarked) [Inderal, reference compound], the Z-SCORE rises from -1.36 to -0.81.

First: CCc1cccc2c3c([nH]c12)C(CC)(CC(=O)O)OCC3 (centres unmarked) [Etodolac, reference compound]
Second: CC(C)(C)NCC(O)COc1cccc2c1CC(O)C(O)C2 (centres unmarked) [NADOLOL, reference compound]
The Z-SCORE of the first is lower: -0.28 for the first, 0.1 for the second.

Going from `C[C@H](CS)C(=O)N1CCC[C@H]1C(=O)O` [CAPTOPRIL, reference compound] to `C[C@]12CCC(=O)C=C1CC[C@@H]1[C@@H]2[C@@H](O)C[C@@]2(C)[C@H]1CC[C@]2(O)C(=O)COC(=O)CCC(=O)O` [HYDROCORTISONE HEMISUCCINATE, reference compound], the Z-SCORE falls from -0.02 to -1.64.

Going from `Nc1ncnc2c1ncn2[C@@H]1O[C@H](CO)C[C@H]1O` [3'-Deoxydenosine, reference compound] to `NC(=O)c1ncn([C@@H]2O[C@H](CO)[C@@H](O)[C@H]2O)n1` [Ribavirin, reference compound], the Z-SCORE falls from 5.88 to 0.53.

Compared with `CN/C(=N/CCSCc1nc[nH]c1C)NC#N` [Cimetidine, reference compound], `CC(C)NCC(O)COc1cccc2[nH]ccc12` (centres unmarked) [PINDOLOL, reference compound] is higher in Z-SCORE: -0.45 for the first, 6.52 for the second.

First: COc1c2occc2cc2ccc(=O)oc12 [Methoxsalen, reference compound]
Second: O=C1CN(/N=C/c2ccc(-c3ccc([N+](=O)[O-])cc3)o2)C(=O)[N-]1.[Na+] [Dantrolene sodium salt, reference compound]
The Z-SCORE of the first is lower: 0.16 for the first, 0.78 for the second.

Going from `CCN(CC)CCOC(=O)C1(C2CCCCC2)CCCCC1` [Dicyclomine hydrochloride, reference compound] to `C#C[C@]1(OC(C)=O)CC[C@H]2[C@@H]3CCC4=CC(=O)CC[C@@H]4[C@H]3CC[C@@]21C` [19-NORETHINDRONE ACETATE, reference compound], the Z-SCORE rises from -2.03 to -0.99.

Going from `Nc1cc(N2CCCCC2)nc(N)[n+]1[O-]` [Minoxidil, reference compound] to `Clc1ccc2c(c1)C(N1CCNCC1)=Nc1ccccc1O2` [AMOXAPINE, reference compound], the Z-SCORE rises from 0.25 to 0.4.

First: Clc1ccc(COC(Cn2ccnc2)c2ccc(Cl)cc2Cl)c(Cl)c1 (centres unmarked) [MICONAZOLE NITRATE, reference compound]
Second: CCC(C)n1ncn(-c2ccc(N3CCN(c4ccc(OCC5COC(Cn6cncn6)(c6ccc(Cl)cc6Cl)O5)cc4)CC3)cc2)c1=O (centres unmarked) [Itraconazole, reference compound]
The Z-SCORE of the first is higher: -0.69 for the first, -3.6 for the second.

First: c1ccc2[nH]c(-c3cscn3)nc2c1 [THIABENDAZOLE, reference compound]
Second: CC(CCc1ccccc1)NCC(O)c1ccc(O)c(C(N)=O)c1 (centres unmarked) [LABETALOL HYDROCHLORIDE, reference compound]
The Z-SCORE of the first is lower: -1.42 for the first, -1.04 for the second.

Compared with `CN(C)CCCC1(c2ccc(F)cc2)OCc2cc(C#N)ccc21` (centres unmarked) [Citalopram, reference compound], `C#CCN(C)[C@H](C)Cc1ccccc1.Cl` [DEPRENALIN, reference compound] is higher in Z-SCORE: -1.5 for the first, 0.31 for the second.

Going from `C#C[C@]1(O)CC[C@H]2[C@@H]3CCC4=CC(=O)CC[C@@H]4[C@H]3CC[C@@]21C` [19-Norethindrone, reference compound] to `CC(=O)O[C@]1(C(C)=O)CC[C@H]2[C@@H]3C[C@H](C)C4=CC(=O)CC[C@]4(C)[C@H]3CC[C@@]21C` [Medroxyprogesterone 17-acetate, reference compound], the Z-SCORE falls from 0.63 to -1.59.

Compared with `CCC(=O)O[C@]1(C(=O)CCl)[C@@H](C)C[C@H]2[C@@H]3CCC4=CC(=O)C=C[C@]4(C)[C@@]3(F)[C@@H](O)C[C@@]21C` [CLOBETASOL PROPIONATE, reference compound], `NC(=O)c1cnccn1` [Pyrazinamide, reference compound] is higher in Z-SCORE: -2.64 for the first, 1.05 for the second.

For `COc1cc([C@@H]2c3cc4c(cc3[C@H](O)[C@H]3COC(=O)[C@H]23)OCO4)cc(OC)c1OC` [Podofilox, reference compound], the Z-SCORE was “flagged”.
